In patent publication US10869871B2, “Compositions and methods of modulating short-chain dehydrogenase activity” (CASE WESTERN RESERVE UNIVERSITY, priority 2013, dated 2020):

Assays:
[1] = system: 15-PGDH-luciferase fusion reporter in V9m, LS174T and V503 colon cancer cell lines; experiment: 15-PGDH-luciferase fusion reporter induction in colon cancer cell lines; assay type: cell-based; conditions: V9m, LS174T, V503; relative to DMSO
A549 cells = experiment: PGE2 levels in medium of IL1-beta stimulated A549 cells; assay type: cell-based
cell culture = experiment: Toxicity: concentration needed to decrease cell numbers in a cell culture assay; assay type: cell-based
Description: Time to inhibition refers to the time needed to inhibit the generation of NADH by 15-PGDH from the moment with drug is added into the reaction mix. Delta Tm refers to the shift in melting temperature of recombinant 15-PGDH in the presence of drug (with cofactor NADH also present). Concentration of Full Cell Line Reporter Induction refers to the concentration of drug that needs to be added to reporter cell line to achieve maximal induction of the 15-PGDH-luciferase gene fusion reporter cassette, as measured by luciferase assays. Hepatocyte stability refers to the half-life of compound in the presence of hepatocytes in culture. Toxicity refers to the concentration of compound needed to decrease cell numbers in a cell culture assay.

[2] = 21 day toxicity study in FVB mice (daily weights); assay type: in vivo, mouse; conditions: 5 mg/kg IP twice daily for 21 days
bone marrow = experiment: Bone marrow analysis of C57BL/6J mice treated IP; assay type: in vivo, mouse; conditions: IP 5 mg/kg or 20 mg/kg
From the text: FIGS. […] Experimental conditions are noted on the figure.

[3] = Survival of mice after whole body irradiation; assay type: in vivo, mouse
liver = experiment: Liver regeneration after partial hepatectomy, C57BL/6J mice; assay type: in vivo; conditions: 5 mg/kg IP bid, one mouse each
colon = experiment: Dextran sodium sulfate (DSS) induced colitis in FVB mice; assay type: in vivo, mouse; conditions: 22 days of study

## CCCC[S+]([O-])c1sc2nc(-c3cccs3)cc(-c3ccccc3)c2c1N (centres unmarked) [SW033291, 2-(butylsulfinyl)-4-phenyl-6-(thiophen-2-yl)thieno[2,3-b]pyridin-3-amine]
[1]
  luciferase activity of 15-PGDH luciferase fusion cells: increase luciferase activity
A549 cells; 100 nM concentration of drug
  rank of PGE2 level in medium: next highest level of PGE2
A549 cells; IL1-beta 23 hours, compound added for last 5 hours
  PGE2 level in medium, reflecting 15-PGDH activity: clear inhibition of 15-PGDH activity
A549 cells; IL-1β 16 h, compound 8 h
  highest PGE2 level achieved in medium: 3000 pg/mL
Cell culture
  Toxicity: >10 µM
[2]
  mouse weight during treatment: no evidence for SW033291 reducing mouse weight
Bone marrow
  percent of Sca1+/c-Kit+ lineage negative (SKL) cells: unchanged
[3]; 7 Gy, 5 mg/kg IP daily for 7 doses, Day 0
  number of mice surviving: 3
[3]; 7 Gy, 5 mg/kg IP daily for 7 doses, Day 6
  number of mice surviving: 3
[3]; 7 Gy, 5 mg/kg IP daily for 7 doses, Day 7
  number of mice surviving: 3
[3]; 7 Gy, 5 mg/kg IP daily for 7 doses, Day 8
  number of mice surviving: 3
[3]; 7 Gy, 5 mg/kg IP daily for 7 doses, Day 9
  number of mice surviving: 3
[3]; 7 Gy, 5 mg/kg IP daily for 7 doses, Day 10
  number of mice surviving: 3
[3]; 7 Gy, 5 mg/kg IP daily for 7 doses, Day 11
  number of mice surviving: 3
[3]; 7 Gy, 5 mg/kg IP daily for 7 doses, Day 12
  number of mice surviving: 3
[3]; 7 Gy, 5 mg/kg IP daily for 7 doses, Day 13
  number of mice surviving: 3
[3]; 7 Gy, 5 mg/kg IP daily for 7 doses, Day 14
  number of mice surviving: 3
[3]; 7 Gy, 5 mg/kg IP daily for 7 doses, Day 15
  number of mice surviving: 3
[3]; 7 Gy, 5 mg/kg IP daily for 7 doses, Day 25 (cell reads Looks Healthy)
  appearance of mice: Healthy
[3]; 9 Gy, 5 mg/kg IP daily for 7 doses, Day 0
  number of mice surviving: 3
[3]; 9 Gy, 5 mg/kg IP daily for 7 doses, Day 6
  number of mice surviving: 3
[3]; 9 Gy, 5 mg/kg IP daily for 7 doses, Day 7
  number of mice surviving: 3
[3]; 9 Gy, 5 mg/kg IP daily for 7 doses, Day 8
  number of mice surviving: 3
[3]; 9 Gy, 5 mg/kg IP daily for 7 doses, Day 9
  number of mice surviving: 3
[3]; 9 Gy, 5 mg/kg IP daily for 7 doses, Day 10
  number of mice surviving: 3
[3]; 9 Gy, 5 mg/kg IP daily for 7 doses, Day 11
  number of mice surviving: 3
[3]; 9 Gy, 5 mg/kg IP daily for 7 doses, Day 12
  number of mice surviving: 2
[3]; 9 Gy, 5 mg/kg IP daily for 7 doses, Day 13
  number of mice surviving: 2
[3]; 9 Gy, 5 mg/kg IP daily for 7 doses, Day 14
  number of mice surviving: 1
[3]; 9 Gy, 5 mg/kg IP daily for 7 doses, Day 15
  number of mice surviving: 0
[3]; 11 Gy, 5 mg/kg IP 1 dose/daily for 7 days (Table 7), Day 0
  number of mice surviving: 3
[3]; 11 Gy, 5 mg/kg IP 1 dose/daily for 7 days (Table 7), Day 5
  number of mice surviving: 3
[3]; 11 Gy, 5 mg/kg IP 1 dose/daily for 7 days (Table 7), Day 6
  number of mice surviving: 3
[3]; 11 Gy, 5 mg/kg IP 1 dose/daily for 7 days (Table 7), Day 7
  number of mice surviving: 3
[3]; 11 Gy, 5 mg/kg IP 1 dose/daily for 7 days (Table 7), Day 8
  number of mice surviving: 2
[3]; 11 Gy, 5 mg/kg IP 1 dose/daily for 7 days (Table 7), Day 9
  number of mice surviving: 1
[3]; 11 Gy, 5 mg/kg IP 1 dose/daily for 7 days (Table 7), Day 10
  number of mice surviving: 0
[3]; 11 Gy, 5 mg/kg IP 1 dose/daily, continuous every day, Day 0
  number of mice surviving: 3
[3]; 11 Gy, 5 mg/kg IP 1 dose/daily, continuous every day, Day 5
  number of mice surviving: 3
[3]; 11 Gy, 5 mg/kg IP 1 dose/daily, continuous every day, Day 6
  number of mice surviving: 3
[3]; 11 Gy, 5 mg/kg IP 1 dose/daily, continuous every day, Day 7
  number of mice surviving: 3
[3]; 11 Gy, 5 mg/kg IP 1 dose/daily, continuous every day, Day 8
  number of mice surviving: 3
[3]; 11 Gy, 5 mg/kg IP 1 dose/daily, continuous every day, Day 9
  number of mice surviving: 2
[3]; 11 Gy, 5 mg/kg IP 1 dose/daily, continuous every day, Day 10
  number of mice surviving: 0
[3]; 11 Gy, 5 mg/kg IP 2 dose daily for 7 days, Day 0
  number of mice surviving: 3
[3]; 11 Gy, 5 mg/kg IP 2 dose daily for 7 days, Day 5
  number of mice surviving: 3
[3]; 11 Gy, 5 mg/kg IP 2 dose daily for 7 days, Day 6
  number of mice surviving: 3
[3]; 11 Gy, 5 mg/kg IP 2 dose daily for 7 days, Day 7
  number of mice surviving: 3
[3]; 11 Gy, 5 mg/kg IP 2 dose daily for 7 days, Day 8
  number of mice surviving: 3
[3]; 11 Gy, 5 mg/kg IP 2 dose daily for 7 days, Day 9
  number of mice surviving: 2
[3]; 11 Gy, 5 mg/kg IP 2 dose daily for 7 days, Day 10
  number of mice surviving: 0
[3]; 11Gy, 5 mg/kg IP daily for 7 doses
  longer survival versus vehicle: 48 h
[3]; 11 Gy, 5 mg/kg IP daily for 7 doses (Table 6), Day 0
  number of mice surviving: 3
[3]; 11 Gy, 5 mg/kg IP daily for 7 doses (Table 6), Day 5
  number of mice surviving: 3
[3]; 11 Gy, 5 mg/kg IP daily for 7 doses (Table 6), Day 6
  number of mice surviving: 3
[3]; 11 Gy, 5 mg/kg IP daily for 7 doses (Table 6), Day 7
  number of mice surviving: 3
[3]; 11 Gy, 5 mg/kg IP daily for 7 doses (Table 6), Day 8
  number of mice surviving: 3
[3]; 11 Gy, 5 mg/kg IP daily for 7 doses (Table 6), Day 9
  number of mice surviving: 2
[3]; 11 Gy, 5 mg/kg IP daily for 7 doses (Table 6), Day 10
  number of mice surviving: 0
[3]; 11Gy, any of the 5 mg/kg dosing schedules
  longer survival on average versus vehicle: 1 to 2 days
liver
  serum ALT levels versus control: lower
colon
  change from baseline weight versus control: greater weight at all time points
